From patent publication US20220205049A1, “METHODS OF DETECTING AND PREDICTING BREAST CANCER” (priority 2019, published 2022)

Tested on: breast tissue
Test: Mifepristone trial: breast tissue biopsies before and after treatment, DNA methylation (EPIC array), EpiDISH cell type composition and WID-BC-index
Type: in vivo, human
From the text: The second set of samples were obtained from the clinical trial “The Effect of a Progesterone Receptor Modulator on Breast Tissue in Women With BRCA-1 and -2 Mutations—a Placebo Controlled RCT” (ClinicalTrials.gov Identifier: NCT01898312; regional ethical review board at Karolinska Institutet permit 2009/144-31/4). Study subjects were healthy premenopausal women aged 18-43 years with regular menstrual cycles lasting 25-35 days and with no contraindications to mifepristone. The main exclusion criteria were: use of any hormonal or intrauterine contraception and pregnancy or breastfeeding 2 months prior to the study; a history of breast cancer or other malignancies and adnexal abnormality upon transvaginal ultrasound examination. All women were instructed to use barrier contraceptive methods throughout the duration of the study.
After signing an informed consent, study subjects were randomised into two groups. One group (i.e. 11 BRCA carriers and 9 controls) was treated with 50 mg mifepristone (one quarter of 200 mg Mifegyne®, Exelgyn, Paris, France) every other day for two months (56 days) starting on the first day of the menstrual cycle. […]
We analysed breast tissue samples from 21 BRCA carriers and 23 healthy controls before and after treatment with either mifepristone or placebo for two months. […]

With CC#C[C@]1(O)CC[C@H]2[C@@H]3CCC4=CC(=O)CCC4=C3[C@@H](c3ccc(N(C)C)cc3)C[C@@]21C [mifepristone] as the molecule, how does the “women with downward trend in the WID-BC-index after treatment” value (breast tissue, after adjustment for fat content, before vs after two months treatment, did not reach statistical significance) read?
Its value is 80%.

What about the “epithelial cell proportion in breast tissue samples after treatment” value (matched BRCA carrier and control groups, before vs after 50 mg every other day for two months, not seen in the placebo group) of the same molecule?
The value was “statistically significant decrease”.
